Literature values in patent US20140005280A1, “CARBOXYMETHYL STARCH AND CHITOSAN POLYELECTROLYTE COMPLEXES” (4413261 Canada Inc. (Spencer Canada), priority 2011, published 2014).

Settings: US Pharmacopeia, 2000

CC(=O)Oc1ccccc1C(=O)O [aspirin, acetylsalicylic acid]
solubility: slightly soluble in water
